This is an account of results in ChEMBL document CHEMBL2177093, “The design and identification of brain penetrant inhibitors of phosphoinositide 3-kinase α” (J Med Chem, 2012).

Series [1] relates to mouse Bcrp1. The series can be described thus: in vitro. Conditions: dog.
Series [2] can be described thus: Ratio of drug level in brain to plasma in CD-1 mouse at 15 mg/kg, po measured at 0.5 hrs. It counts as ADME, organism-based. Set-up: dose 15 mg/kg, route oral. As to conditions: read-out: BPR.
Series [3] deals with Serine/threonine-protein kinase mTOR (Homo sapiens, UniProt P42345). Description: Inhibition of human recombinant mTOR (1360 to 2549 amino acids) assessed as reduction in phosphorylation of (GFP)-4-EBP1 after 30 mins by FRET assay. As to conditions: read-out: Ki(app).
A short description of series [4]: in vitro. Conditions: human, liver microsomes. A general note: Liver microsomes are vesicles of endoplasmic reticulum, rich in cytochrome P450 enzymes.
Series [5] can be described thus: Plasma protein binding in CD-1 mouse. Type of series: ADME, cell-free. As to conditions: read-out: PPB (converted).
The nature of series [6]: Ratio of drug level in brain to plasma in CD-1 mouse at 15 mg/kg, po at 0.5 hr. It counts as ADME, organism-based. Set-up: dose 15 mg/kg, route oral. Conditions: read-out: BPR.
Series [7] in a line: Half life in po dosed CD-1 mouse. Type of series: ADME, organism-based. Conditions: in vivo.
Series [8] in a line: Ratio of drug level in brain to plasma in CD-1 mouse at 15 mg/kg, po at 4 hrs. Type of series: ADME, organism-based. The arrangement: dose 15 mg/kg, route oral. Conditions: read-out: BPR.
The nature of series [9]: Clearance in rat. It counts as ADME, organism-based. Conditions: in vivo.
Series [10] can be described thus: Ratio of drug level in brain to plasma in CD-1 mouse at 20 mg/kg, po measured at 1 hr. Set-up: dose 20 mg/kg, route oral. Type of series: ADME, organism-based. As to conditions: read-out: BPR.
Series [11] is described as follows: Ratio of drug level in brain to plasma in CD-1 mouse at 10 mg/kg, po measured at 0.5 hrs. As to conditions: read-out: BPR. The arrangement: dose 10 mg/kg, route oral. It counts as ADME, organism-based.
The nature of series [12]: Protein binding in CD-1 mouse plasma at 25 mg/kg, po administered as single dose. It counts as ADME, organism-based. Set-up: dose 25 mg/kg, route oral. Conditions: read-out: PPB (converted).
Series [13] in a line: Ratio of drug level in brain to plasma in CD-1 mouse at 15 mg/kg, po at 6 hrs. Type of series: ADME, organism-based. Set-up: dose 15 mg/kg, route oral. Conditions: read-out: BPR.
A short description of series [14]: Clearance in po dosed CD-1 mouse. Type of series: ADME, organism-based. Conditions: in vivo.
Series [15] can be described thus: Protein binding in CD-1 mouse brain at 25 mg/kg, po administered as single dose. Type of series: ADME, organism-based. Set-up: dose 25 mg/kg, route oral. As to conditions: read-out: PB (converted).
The nature of series [16]: Ratio of drug level in brain to plasma in CD-1 mouse at 15 mg/kg, po at 1 hr. Type of series: ADME, organism-based. The arrangement: dose 15 mg/kg, route oral. As to conditions: read-out: BPR.
The nature of series [17]: Oral bioavailability in CD-1 mouse. As to conditions: in vivo. It counts as ADME, organism-based.

Usually efflux ratio stands for the permeability from basolateral to apical divided by that in the opposite direction, in the common usage. In the case of `Cc1c(C(C)(C)O)sc2c(N3CCOCC3)nc(-c3cnc(N)nc3)nc12`, the efflux ratio at 2 h, 5 µM in series [1] was 5.4.

For orientation: half-life means the time in which the quantity being followed falls by half. `CC(C)(O)c1cc2nc(-c3cnc(N)nc3)nc(N3CCOCC3)c2s1`: the Kp at 0.5 h in series [2] amounted to 0.2; in [6], 0.3. For the same compound, in series [3], the Ki is 30 nM. Further, in [4], the CLhep predicted was 4 mL/min/kg. Moreover, in series [5], the fraction unbound is 0.198. The compound further gave a half-life in series [7] of 2.2 h. In series [8], the Kp at 4 h was 0.2.

With `COCCOC1(c2cc3nc(-c4cnc(N)nc4)nc(N4CCOCC4)c3s2)COC1`, the efflux ratio at 2 h, 5 µM in [1] amounted to 1.4.

As usually defined, the clearance is a measure of how efficiently the substance is removed, as volume per time. Take `Cc1c(CN2CCN(C(=O)[C@H](C)O)CC2)sc2c(N3CCOCC3)nc(-c3cnc(N)nc3)nc12` [APITOLISIB]: the CLhep predicted in series [4] is 3 mL/min/kg. The compound also gave a clearance in [9] of 3 mL/min/kg. The Kp at 1 h in series [10] was under 0.1.

For the compound `CS(=O)(=O)N1CCN(Cc2cc3nc(-c4cccc5[nH]ncc45)nc(N4CCOCC4)c3s2)CC1` [PICTILISIB], in series [11], the Kp at 0.5 h is under 0.05.

On to `CC(F)(F)c1cc2nc(-c3cnc(N)nc3)nc(N3CCOCC3)c2s1`, for which the efflux ratio at 2 h, 5 µM in series [1] was found to be 1.7.

Turning to `Cc1c(C2(O)COC2)sc2c(N3CCOCC3)nc(-c3cnc(N)nc3)nc12`, the efflux ratio at 2 h, 5 µM in [1] was 7.1.

The term CL/F denotes clearance divided by bioavailability, as obtained after extravascular dosing. What is called bioavailability is the share of a dose that reaches the circulation, judged against a reference dose that is usually intravenous. A higher bioavailability goes with much systemic uptake. In the case of `CC1(C)OCCc2c1sc1c(N3CCOCC3)nc(-c3cnc(N)nc3)nc21`, the fraction unbound is 0.006 in series [12], 0.003 in series [15] and 0.006 in series [5]. Further, in series [13], the Kp at 6 h is 1.6. For the same compound, the CL/F in [14] amounted to 16 mL/min/kg. The Ki in [3] came out at 13 nM. Also, the Kp at 1 h in [16] was 1.4. This compound also displayed a bioavailability in [17] of 93%. Besides, in series [7], the half-life is 2.9 h. Further, the efflux ratio at 2 h, 5 µM in series [1] was determined as 2.3.
